The source of these data is ChEMBL document CHEMBL5729548, “ACLY inhibitors and uses thereof” (2023).

The test addresses T1, ATP-citrate synthase (Homo sapiens, UniProt P53396).
T1 sequence (P53396 whole entry): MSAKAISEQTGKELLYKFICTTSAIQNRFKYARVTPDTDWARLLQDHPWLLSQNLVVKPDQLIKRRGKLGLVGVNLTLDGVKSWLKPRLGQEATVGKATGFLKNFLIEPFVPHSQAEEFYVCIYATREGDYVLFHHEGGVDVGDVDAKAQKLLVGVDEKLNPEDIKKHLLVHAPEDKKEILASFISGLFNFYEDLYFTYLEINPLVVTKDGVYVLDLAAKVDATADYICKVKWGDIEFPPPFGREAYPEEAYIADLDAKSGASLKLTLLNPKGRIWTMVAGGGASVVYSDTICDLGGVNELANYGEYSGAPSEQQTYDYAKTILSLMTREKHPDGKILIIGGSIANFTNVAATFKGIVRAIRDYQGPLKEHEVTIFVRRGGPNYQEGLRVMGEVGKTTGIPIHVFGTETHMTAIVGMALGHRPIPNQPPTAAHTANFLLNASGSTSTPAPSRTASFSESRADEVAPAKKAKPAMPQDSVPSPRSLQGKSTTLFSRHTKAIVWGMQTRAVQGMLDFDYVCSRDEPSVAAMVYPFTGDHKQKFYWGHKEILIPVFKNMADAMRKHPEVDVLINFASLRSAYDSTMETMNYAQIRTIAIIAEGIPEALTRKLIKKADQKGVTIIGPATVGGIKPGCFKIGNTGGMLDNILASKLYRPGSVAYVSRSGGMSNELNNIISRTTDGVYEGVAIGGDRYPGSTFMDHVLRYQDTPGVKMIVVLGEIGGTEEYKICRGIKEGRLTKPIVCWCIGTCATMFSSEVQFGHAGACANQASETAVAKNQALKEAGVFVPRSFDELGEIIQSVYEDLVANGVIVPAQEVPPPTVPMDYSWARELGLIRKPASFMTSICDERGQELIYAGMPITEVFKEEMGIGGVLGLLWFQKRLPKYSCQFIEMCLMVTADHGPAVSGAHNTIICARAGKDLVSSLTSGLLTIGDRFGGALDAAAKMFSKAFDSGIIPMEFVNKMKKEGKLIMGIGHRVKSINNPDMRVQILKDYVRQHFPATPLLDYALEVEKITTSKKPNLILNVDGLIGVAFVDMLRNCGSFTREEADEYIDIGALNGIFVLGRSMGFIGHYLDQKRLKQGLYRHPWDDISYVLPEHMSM
Kind of test: ADP-Glo Assay: Materials and Instruments Used in the ADP-Glo AssayVendor Cat No.Materials ACL Sino Biological 11769-H07BCoANa2 Sigma C3144Potassium Citrate Sigma 89306ATP Promega V915BADP-GloTM Kinase Assay Promega V9102kitHEPES Life Technologies 15630080MgCl2 Sigma M1028Brij 35 detergent Merck 203728DTT Sigma 646563DMSO MP 196055Optiplate-384, White 384- Perkin Elmer 6007290well384 dilution …. (In general: In ADP-Glo the light output rises with the ADP produced.)

pIC50: −log10 of the molar value. A value given as a limit tells only on which side of the number the result lay.

In the case of `O=C(c1cc(Cl)c(O)c(S(=O)(=O)Nc2cc(-c3cc4ccccc4s3)c(F)cc2OC(F)(F)F)c1)N1CCC1`, the pIC50 was more than 7.30.

What is called pIC50 is the IC50 on a negative log10 scale, so that one unit is a factor of ten. Low values mean a large IC50, high ones a small IC50.
